Assay results from patent publication US7060673B2, “Fusion peptide of human parathyroid hormone derived peptide and tat peptide, preparation thereof, and skin slimming cosmetic composition comprising the same” (LG Household and Health Care Ltd., priority 2001, dated 2006).

What was measured:
[1] = test system: 3T3-L1 cell differentiated into adipocyte; assay: Lipolysis effects test (glycerol secretion by differentiated adipocytes); settings: 24 hours, absorbency at 540 nm
[2] = test system: healthy adult women with local obesity or cellulite inside of a thigh; settings: O/W emulsion coated on one leg for one month, control emulsion on the other leg; 5 women
Method: In order to examine slimming effects, clinical tests were conducted on 5 healthy adult women of ages 18˜46 with local obesity or cellulite inside of a thigh (Method of testing primary irritant substances 38(187): pp1500–1541).
The fusion peptide prepared in Example 1 was prepared in the form of an O/W emulsion and used in the test. A control (O/W emulsion without sample) was coated on one leg, and an O/W emulsion comprising the compound of Chemical Formula 1 of the present invention was coated on the other leg, for one month, and then the thickness of the lipid layer was quantified.

Compound: CC(C)NCC(O)c1ccc(O)c(O)c1 (stereo not shown) [Isoproterenol, isoproterenol, reference compound]
- Lipolysis increase rate (%) ([1]; concentration 10^−5 M): 12.5%
- Lipolysis increase rate (%) ([1]; concentration 10^−6 M): 39.0%
- Lipolysis increase rate (%) ([1]; concentration 10^−7 M): 34.5%
- Lipolysis increase rate (%) ([1]; concentration 10^−8 M): 17.3%

Compound: KKKKKKKKKGKH
- Lipolysis increase rate (%) ([1]; concentration 10^−5 M): 43.4%
- Lipolysis increase rate (%) ([1]; concentration 10^−5 M, listed as compound represented by the Chemical Formula 1): 43%
- Lipolysis increase rate (%) ([1]; concentration 10^−6 M): 10.3%
- Lipolysis increase rate (%) ([1]; concentration 10^−7 M): 17.4%
- Lipolysis increase rate (%) ([1]; concentration 10^−8 M): 8.6%
- lipid layer decrease [2]: 18%
